According to ChEMBL document CHEMBL1201862, “PubChem BioAssay data set” (2004):
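Cells were grown in 96-well plates and exposed to each compound for 48 hours at five concentrations; endpoints were interpolated linearly between bracketing concentrations, or set to the highest concentration if not reached. GI50 is the concentration that inhibits growth by half.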 Activity calls are given as the source filed them. Cut-off read from the data, not from the text of the source: active = GI50 up to about 1.1 µM and inactive = higher.

How the values were obtained:
Assay in all cases: NCI tumour cell line growth inhibition, 48 h
[1] = tested on: K562
[2] = tested on: OVCAR-5
[3] = tested on: SNB-75
[4] = tested on: HCT-116
[5] = tested on: A498
[6] = tested on: BT-549
[7] = tested on: NCI-H226
[8] = tested on: SNB-19
[9] = tested on: HT-29
[10] = tested on: TK-10
[11] = tested on: SF-295
[12] = tested on: OVCAR-4
[13] = tested on: UO-31
[14] = tested on: 786-0
[15] = tested on: SR
[16] = tested on: M14
[17] = tested on: MDA-MB-231
[18] = tested on: Hs-578T
[19] = tested on: CCRF-CEM
[20] = tested on: T47D
[21] = tested on: SF-268
[22] = tested on: RXF 393
[23] = tested on: OVCAR-8
[24] = tested on: IGROV-1
[25] = tested on: A549
[26] = tested on: SK-MEL-5
[27] = tested on: MCF7
[28] = tested on: MOLT-4
[29] = tested on: UACC-62
[30] = tested on: DU-145
[31] = tested on: NCI/ADR-RES
[32] = tested on: HCT-15
[33] = tested on: CAKI-1
[34] = tested on: RPMI-8226
[35] = tested on: COLO 205
[36] = tested on: HCC 2998
[37] = tested on: EKVX
[38] = tested on: MDA-MB-435
[39] = tested on: ACHN
[40] = tested on: UACC-257
[41] = tested on: LOX IMVI
[42] = tested on: SK-MEL-28
[43] = tested on: SF-539
[44] = tested on: SN12C
[45] = tested on: NCI-H522
[46] = tested on: HL-60
[47] = tested on: NCI-H23
[48] = tested on: SK-OV-3
[49] = tested on: U-251
[50] = tested on: KM12
[51] = tested on: HOP-92
[52] = tested on: SW-620
[53] = tested on: MDA-N
[54] = tested on: NCI-H460
[55] = tested on: SK-MEL-2
[56] = tested on: Malme-3M
[57] = tested on: PC-3
[58] = tested on: OVCAR-3
[59] = tested on: HOP-62

What does the source list for `CN(C)c1nc(Cl)c2c(-c3ccccc3)c(-c3ccccc3)oc2n1`?
GI50 [1]: 42.1 µM (inactive); GI50 [2]: > 100 µM (inactive); GI50 [3]: 35.8 µM (inactive); GI50 [4]: 31.2 µM (inactive); GI50 [5]: > 100 µM (inactive); GI50 [6]: 29.7 µM (inactive); GI50 [7]: > 100 µM (inactive); GI50 [8]: > 100 µM (inactive); GI50 [9]: 58.7 µM (inactive); GI50 [10]: > 100 µM (inactive); GI50 [11]: 58.1 µM (inactive); GI50 [12]: 75.7 µM (inactive); GI50 [13]: > 100 µM (inactive); GI50 [14]: 72.8 µM (inactive); GI50 [15]: 21.8 µM (inactive); GI50 [16]: > 100 µM (inactive); GI50 [17]: 43 µM (inactive); GI50 [18]: 62.1 µM (inactive); GI50 [19]: 28.1 µM (inactive); GI50 [20]: 83 µM (inactive); GI50 [21]: 36 µM (inactive); GI50 [22]: 19.4 µM (inactive); GI50 [23]: > 100 µM (inactive); GI50 [24]: 80.7 µM (inactive); GI50 [25]: 98.2 µM (inactive); GI50 [26]: 41.7 µM (inactive); GI50 [27]: 28.9 µM (inactive); GI50 [28]: 32.2 µM (inactive); GI50 [29]: 95.5 µM (inactive); GI50 [30]: 52.4 µM (inactive); GI50 [31]: 82.4 µM (inactive); GI50 [32]: 31.6 µM; GI50 [33]: 23.2 µM (inactive); GI50 [34]: 18.9 µM (inactive); GI50 [35]: > 100 µM (inactive); GI50 [36]: 64.6 µM (inactive); GI50 [37]: > 100 µM (inactive); GI50 [38]: > 100 µM (inactive); GI50 [39]: 70 µM (inactive); GI50 [40]: > 100 µM (inactive); GI50 [41]: 33.3 µM (inactive); GI50 [42]: > 100 µM (inactive); GI50 [43]: 48 µM (inactive); GI50 [44]: 39.5 µM (inactive); GI50 [45]: 17.5 µM (inactive); GI50 [46]: 12.2 µM (inactive); GI50 [47]: 41.3 µM (inactive); GI50 [48]: 58.3 µM (inactive); GI50 [49]: > 100 µM (inactive); GI50 [50]: > 100 µM (inactive); GI50 [51]: 81.5 µM (inactive); GI50 [52]: 93.5 µM (inactive)

What does the source list for `C=C1[C@H]2O[C@H]2[C@@H](OC(C)=O)[C@@]2(C)[C@@H](OC(C)=O)C[C@@H](OC(=O)CCC)[C@@](C)(O)[C@@H]2[C@@H](OC(C)=O)[C@]2(O)[C@@H](C)C(=O)O[C@H]2[C@H]1Cl`?
GI50 [1]: > 100 µM (inactive); GI50 [2]: > 100 µM (inactive); GI50 [3]: > 100 µM (inactive); GI50 [4]: > 100 µM (inactive); GI50 [5]: > 100 µM (inactive); GI50 [53]: > 100 µM (inactive); GI50 [6]: > 100 µM (inactive); GI50 [7]: 0.159 µM (active); GI50 [8]: > 100 µM (inactive); GI50 [9]: > 100 µM (inactive); GI50 [10]: 0.959 µM (active); GI50 [11]: > 100 µM (inactive); GI50 [12]: > 100 µM (inactive); GI50 [13]: > 100 µM (inactive); GI50 [14]: > 100 µM (inactive); GI50 [54]: > 100 µM (inactive); GI50 [16]: > 100 µM (inactive); GI50 [17]: > 100 µM (inactive); GI50 [19]: > 10 µM (inactive); GI50 [55]: > 100 µM (inactive); GI50 [20]: > 100 µM (inactive); GI50 [21]: > 100 µM (inactive); GI50 [22]: 38.7 µM (inactive); GI50 [23]: > 100 µM (inactive); GI50 [25]: > 100 µM (inactive); GI50 [26]: > 100 µM (inactive); GI50 [27]: > 100 µM (inactive); GI50 [28]: > 100 µM (inactive); GI50 [56]: > 100 µM (inactive); GI50 [29]: > 100 µM (inactive); GI50 [30]: > 100 µM (inactive); GI50 [31]: > 100 µM (inactive); GI50 [32]: > 100 µM; GI50 [33]: > 100 µM (inactive); GI50 [34]: > 100 µM (inactive); GI50 [35]: > 100 µM (inactive); GI50 [36]: > 100 µM (inactive); GI50 [37]: > 100 µM (inactive); GI50 [57]: > 100 µM (inactive); GI50 [58]: > 100 µM (inactive); GI50 [38]: > 100 µM (inactive); GI50 [39]: > 100 µM (inactive); GI50 [40]: > 100 µM (inactive); GI50 [42]: > 100 µM (inactive); GI50 [43]: > 100 µM (inactive); GI50 [44]: > 100 µM (inactive); GI50 [45]: > 100 µM (inactive); GI50 [46]: > 100 µM (inactive); GI50 [47]: > 100 µM (inactive); GI50 [59]: > 100 µM (inactive); GI50 [49]: > 100 µM (inactive); GI50 [50]: > 100 µM (inactive); GI50 [51]: > 100 µM (inactive); GI50 [52]: > 100 µM (inactive)

Which GI50 [1] does the source give for `COc1ccc2oc(=O)c(-c3csc(-c4ccccc4)n3)cc2c1` here?
The GI50 was > 100 µM (inactive).

What about the GI50 [2] of the same compound?
The GI50 was > 100 µM (inactive).

And the GI50 [3]?
Its GI50 is 37.3 µM (inactive).

What about the GI50 [4] of the same compound?
The GI50 was 35.6 µM (inactive).

What about the GI50 [53] of the same compound?
The GI50 was > 100 µM (inactive).

What about the GI50 [6] of the same compound?
Its GI50 is 21.4 µM (inactive).

And the GI50 [7]?
The GI50 was 39.2 µM (inactive).

What about the GI50 [8] of the same compound?
Its GI50 is 20.5 µM (inactive).

And the GI50 [9]?
Its GI50 is 55.1 µM (inactive).

What about the GI50 [10] of the same compound?
The GI50 was 22.9 µM (inactive).

What about the GI50 [11] of the same compound?
Its GI50 is 22.8 µM (inactive).

And the GI50 [12]?
Its GI50 is 31 µM (inactive).

And the GI50 [13]?
Its GI50 is 24 µM (inactive).

And the GI50 [14]?
Its GI50 is 17.9 µM (inactive).

And the GI50 [15]?
Its GI50 is > 100 µM (inactive).

And the GI50 [54]?
The GI50 was 54 µM (inactive).

And the GI50 [16]?
Its GI50 is > 100 µM (inactive).

And the GI50 [17]?
Its GI50 is 43.4 µM (inactive).

And the GI50 [18]?
The GI50 was 37.8 µM (inactive).

What about the GI50 [19] of the same compound?
Its GI50 is > 100 µM (inactive).

What about the GI50 [55] of the same compound?
The GI50 was > 100 µM (inactive).

What about the GI50 [20] of the same compound?
Its GI50 is > 100 µM (inactive).

And the GI50 [21]?
Its GI50 is 28.8 µM (inactive).

What about the GI50 [22] of the same compound?
The GI50 was 24.9 µM (inactive).

And the GI50 [24]?
Its GI50 is 32.6 µM (inactive).

And the GI50 [25]?
Its GI50 is 64.7 µM (inactive).

What about the GI50 [26] of the same compound?
The GI50 was 45.2 µM (inactive).

And the GI50 [27]?
Its GI50 is 94.6 µM (inactive).

And the GI50 [28]?
The GI50 was > 100 µM (inactive).

What about the GI50 [29] of the same compound?
The GI50 was 34.5 µM (inactive).

And the GI50 [30]?
Its GI50 is > 100 µM (inactive).

And the GI50 [32]?
The GI50 was greater than 100 µM.

And the GI50 [33]?
The GI50 was > 100 µM (inactive).

What about the GI50 [34] of the same compound?
The GI50 was 87.3 µM (inactive).

And the GI50 [35]?
The GI50 was > 100 µM (inactive).

And the GI50 [36]?
Its GI50 is 95.7 µM (inactive).

What about the GI50 [37] of the same compound?
The GI50 was 41.4 µM (inactive).

What about the GI50 [57] of the same compound?
The GI50 was 89.5 µM (inactive).

And the GI50 [38]?
Its GI50 is > 100 µM (inactive).

And the GI50 [39]?
Its GI50 is 32 µM (inactive).

And the GI50 [40]?
Its GI50 is > 100 µM (inactive).

What about the GI50 [41] of the same compound?
The GI50 was 54.8 µM (inactive).

And the GI50 [42]?
Its GI50 is > 100 µM (inactive).

What about the GI50 [43] of the same compound?
The GI50 was 16.9 µM (inactive).

What about the GI50 [46] of the same compound?
Its GI50 is > 100 µM (inactive).

What about the GI50 [48] of the same compound?
Its GI50 is 17.3 µM (inactive).

And the GI50 [59]?
The GI50 was 17.4 µM (inactive).

What about the GI50 [49] of the same compound?
Its GI50 is 21.9 µM (inactive).

What about the GI50 [50] of the same compound?
Its GI50 is > 100 µM (inactive).

What about the GI50 [51] of the same compound?
Its GI50 is 24.3 µM (inactive).

And the GI50 [52]?
The GI50 was 57.7 µM (inactive).
